Data taken from patent US20190023658A1, “SUBSTITUTED 2-DIFLUOROMETHYL-NICOTIN(THIO)CARBOXANILIDE DERIVATIVES AND THEIR USE AS FUNGICIDES” (Bayer CropScience Aktiengesellschaft, priority 2015, published 2019).

Columns and labels:
[1] = test system: Puccinia recondita; assay: In vivo preventive test on Puccinia recondita (brown rust on wheat); details: 10 ppm of active ingredient; wheat plants, preventive spray, evaluated 11 days after inoculation
Protocol: (§1) Example: In Vivo Preventive Test on Puccinia recondita (Brown Rust on Wheat) [table] The active ingredients are made soluble and homogenized in a mixture of Dimethyl sulfoxide/Acetone/Tween® 80 and then diluted in water to the desired concentration. The young plants of wheat are treated by spraying the active ingredient prepared as described above. Control plants are treated only with an aqueous solution of Acetone/Dimethyl sulfoxide/Tween® 80. After 24 hours, the plants are contaminated by spraying the leaves with an aqueous suspension of Puccinia recondita spores. The contaminated wheat plants are incubated for 24 hours at 20° C. and at 100% relative humidity and then for 10 days at 20° C. and at 70-80% relative humidity. The test is evaluated 11 days after the inoculation. 0% means an efficacy which corresponds to that of the control plants while an efficacy of 100% means that no disease is observed.

[2] = Log P by HPLC on reversed phase columns (EEC directive 79/831 Annex V.A8); assay type: physicochemical; details: [a] LC-UV, acidic range, 0.1% formic acid in water and acetonitrile as eluent
Protocol: Measurement of Log P values was performed according to EEC directive 79/831 Annex V.A8 by HPLC (High Performance Liquid Chromatography) on reversed phase columns with the following methods: [a] Log P value is determined by measurement of LC-UV, in an acidic range, with 0.1% formic acid in water and acetonitrile as eluent (linear gradient from 10% acetonitrile to 95% acetonitrile). [b] Log P value is determined by measurement of LC-UV, in a neutral range, with 0.001 molar ammonium acetate solution in water and acetonitrile as eluent (linear gradient from 10% acetonitrile to 95% acetonitrile). Calibration was done with straight-chain alkan2-ones (with 3 to 16 carbon atoms) with known Log P values (measurement of Log P values using retention times with linear interpolation between successive alkanones). Lambda-max-values were determined using UV-spectra from 200 nm to 400 nm and the peak values of the chromatographic signals.

[3] = test system: Uromyces appendiculatus; assay: In vivo preventive test on Uromyces appendiculatus (bean rust); details: 500 ppm of active ingredient; bean plants, preventive spray, evaluated 11 days after inoculation
Protocol: as §1, with “Uromyces appendiculatus (Bean Rust)” for “Puccinia recondita (Brown Rust on Wheat)”, “bean” for “wheat”, “Uromyces appendiculatus” for “Puccinia recondita”

Row | SMILES | LogP [2] | further results
1 | O=C(Nc1ccccc1Oc1cccc(Cl)c1)c1cccnc1C(F)F [Example I-06] | 3.29^[a] | efficacy [1]: at least 70%
2 | O=C(Nc1ccc(F)cc1-c1ccc(Cl)c(Cl)c1)c1c(C(F)F)ccnc1C(F)F [Example I-31] | 3.96^[a] | efficacy [3]: at least 70%
3 | O=C(Nc1ccccc1-c1ccc(F)c(Cl)c1)c1cccnc1C(F)F [Example I-66] | 3.04^[a] | –
4 | CCON=Cc1ccc(-c2ccccc2NC(=S)c2cccnc2C(F)F)cc1 [Example I-67] | 3.70^[a] | –
5 | FC(F)c1ncccc1C(=S)Nc1ccccc1-c1ccc(C(F)(F)F)c(Cl)c1 [Example I-68, N-[3′-chloro-4′-(trifluoromethyl)biphenyl-2-yl]-2-(difluoromethyl)pyridine-3-carbothioamide] | – | chromatographic logP ([2]; reversed phase HPLC column): 3.94
6 | COC(=N)c1c(F)cc(-c2cc(F)ccc2NC(=S)c2cccnc2C(F)F)cc1F [Example I-69] | 3.73^[a] | –
7 | CCON=Cc1c(F)cc(-c2cc(F)ccc2NC(=S)c2cccnc2C(F)F)cc1F [Example I-70] | 4.11^[a] | –
8 | N#Cc1c(F)cc(-c2ccccc2NC(=S)c2cccnc2C(F)F)cc1F [Example I-71] | 3.19^[a] | –
9 | CCON=Cc1c(F)cc(-c2cccc(F)c2NC(=S)c2cccnc2C(F)F)cc1F [Example I-72] | 3.99^[a] | –
10 | Fc1ccc(-c2ccccc2NC(=S)c2cccnc2C(F)F)cc1F [Example I-73] | 3.27^[a] | –
11 | COC(=N)c1c(F)cc(-c2cccc(F)c2NC(=S)c2cccnc2C(F)F)cc1F [Example I-74] | 3.60^[a] | –
12 | CCON=Cc1c(F)cc(-c2ccccc2NC(=S)c2cccnc2C(F)F)cc1F [Example I-75] | 3.92^[a] | –
13 | CON=Cc1c(F)cc(-c2ccccc2NC(=S)c2cccnc2C(F)F)cc1F [Example I-76] | 3.55^[a] | –
